According to the supplement of paper PMC10883282:

Tests used:
Experiment in all cases: relative viability vs DMSO control (72 h) (fraction); higher = more viable cells
KHOS-240S = test system: KHOS-240S
How it was run: (§1)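 A 5 µM positive control and 0.1% DMSO vehicle ran alongside sarcoma cell lines seeded in 384-well plates to reach 80–90% confluence. Serially diluted compound, 2.5 µl from source plates of 10 mM to 0.0002 mM, was added after 24 h, and the plates were held 72 h at 37 °C, 5% CO2. Relative viability was worked out from ATPLite readings as percent growth averaged over up to triplicate wells. The values were rescaled so that 1 is full and 0 is none.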

RD-ES = test system: RD-ES
How it was run: as §1

RD = test system: RD
How it was run: as §1

SK-ES-1 = test system: SK-ES-1
How it was run: as §1

SW982 = test system: SW982
How it was run: as §1

COc1cc2c(Oc3ccc4[nH]c(C)cc4c3F)ccnc2cc1OCC1(N)CC1 [Anlotinib]
relative viability
Details | KHOS-240S | RD | RD-ES | SK-ES-1 | SW982
0.00017 µM | 1.06 | 1.06 | 0.9225 | 1.05 | 1.034
0.00051 µM | 1.049 | 1.06 | 0.948 | 1.053 | 1.04
0.00152 µM | 1.04 | 1.08 | 0.969 | 1.04 | 1.01
0.00457 µM | 1.06 | 1.07 | 0.965 | 1.03 | 1.05
0.01372 µM | 1.05 | 1.06 | 0.98 | 1.07 | 1.06
0.04115 µM | 1.04 | 1.09 | 0.992 | 1.09 | 1.06
0.1235 µM | 1.03 | 1.07 | 0.977 | 1.09 | 1.05
0.3704 µM | 0.993 | 1.04 | 0.9545 | 1.07 | 0.997
1.111 µM | 0.892 | 0.946 | 0.925 | 0.958 | 0.956
3.333 µM | 0.464 | 0.594 | 0.594 | 0.104 | 0.544
10 µM | 0.122 | 0.217 | 0.0858 | 0.0396 | 0.206

C1=N/C2=N/c3ccc(OCCN4CCCC4)c(c3)COC/C=C/COCc3cccc(c3)C(=C1)N2 [Pacritinib]
relative viability
Details | KHOS-240S | RD | RD-ES | SK-ES-1 | SW982
0.00017 µM | 1.05 | 1.08 | 1 | 1.07 | 1.04
0.00051 µM | 1.08 | 1.1 | 1.03 | 1.06 | 1.08
0.00152 µM | 1.08 | 1.12 | 1.04 | 1.06 | 1.12
0.00457 µM | 1.08 | 1.11 | 1.01 | 1.02 | 1.09
0.01372 µM | 1.09 | 1.13 | 1.03 | 1.07 | 1.09
0.04115 µM | 1.06 | 1.111 | 1 | 0.989 | 1.11
0.1235 µM | 1.06 | 1.07 | 0.967 | 0.945 | 0.923
0.3704 µM | 0.985 | 0.823 | 0.821 | 0.593 | 0.573
1.111 µM | 0.5636 | 0.462 | 0.437 | 0.222 | 0.296
3.333 µM | 0.0954 | 0.158 | 0.109 | 0.00983 | 0.157
10 µM | 0.108 | 0.144 | 0.165 | 0.00643 | 0.153
